Measurements as given in the supplement of paper PMC10307832.

Tests used:
Test in all cases: relative viability (nuclei count vs DMSO), 5 days (fraction); higher = more cells survive
NCI-H1666 = test system: NCI-H1666
Summary of the method: (§1)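 Relative viability divides the nuclei count in treated wells by that in vehicle wells. Lung cancer cell lines were seeded in 1536-well plates, dosed by pin tool the next day, and fixed and stained after 5 days in one step with final 0.05% Triton X-100, 1% formaldehyde and 1 ug/ml Hoechst. Dosing was a single drug or a fixed anchor-drug dose plus five library-drug doses (not always all listed) in √10 steps, and values are medians of duplicate plates imaged at 4×.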

HCC-15 = test system: HCC-15
Summary of the method: as §1

NCI-H1993 = test system: NCI-H1993
Summary of the method: as §1

NCI-H1563 = test system: NCI-H1563
Summary of the method: as §1

PC-3 [JPC-3] = test system: PC-3 [JPC-3]
Summary of the method: as §1

NCI-H661 = test system: NCI-H661
Summary of the method: as §1

NCI-H520 = test system: NCI-H520
Summary of the method: as §1

PC-14 = test system: PC-14
Summary of the method: as §1

SK-LU-1 = test system: SK-LU-1
Summary of the method: as §1

NCI-H1734 = test system: NCI-H1734
Summary of the method: as §1

NCI-H2228 = test system: NCI-H2228
Summary of the method: as §1

H3255 = test system: H3255
Summary of the method: as §1

HARA = test system: HARA
Summary of the method: as §1

NCI-H3122 = test system: NCI-H3122
Summary of the method: as §1

NCI-H1975 = test system: NCI-H1975
Summary of the method: as §1

NCI-H838 = test system: NCI-H838
Summary of the method: as §1

CAL-12T = test system: CAL-12T
Summary of the method: as §1

LC-2-ad = test system: LC-2-ad
Summary of the method: as §1

HCC-366 = test system: HCC-366
Summary of the method: as §1

NCI-H647 = test system: NCI-H647
Summary of the method: as §1

LU99A = test system: LU99A
Summary of the method: as §1

COR-L 105 = test system: COR-L 105
Summary of the method: as §1

`CCCCCCCCCCCC1=C(O)C(=O)C=C(O)C1=O` [Embelin] + CC(C)C[C@H](NC(=O)[C@H](Cc1ccccc1)NC(=O)c1cnccn1)B(O)O [Bortezomib] (partner 0.002 µM) was tested, and the relative viability (NCI-H1666; first compound 0.08 µM) was 0.655, the relative viability (NCI-H1666; first compound 0.8 µM) was 1.05 and the relative viability (NCI-H1666; first compound 2.53 µM) was 0.922. For the same molecule, the relative viability (NCI-H1666; first compound 8 µM) was 0.829, the relative viability (HCC-15; first compound 0.08 µM) was 1.07 and the relative viability (HCC-15; first compound 0.8 µM) was 1.02. The relative viability (HCC-15; first compound 2.53 µM) was 1.18, the relative viability (HCC-15; first compound 8 µM) was 1.11 and the relative viability (NCI-H1993; first compound 0.08 µM) was 1.16. It also gave a relative viability (NCI-H1993; first compound 0.8 µM) of 1.14, a relative viability (NCI-H1993; first compound 2.53 µM) of 1.22 and a relative viability (NCI-H1993; first compound 8 µM) of 1.08. The relative viability (NCI-H1563; first compound 0.08 µM) was 1.06, the relative viability (NCI-H1563; first compound 0.8 µM) was 0.953 and the relative viability (NCI-H1563; first compound 2.53 µM) was 0.787. The relative viability (NCI-H1563; first compound 8 µM) was 0.753, the relative viability (PC-3 [JPC-3]; first compound 0.08 µM) was 0.831 and the relative viability (PC-3 [JPC-3]; first compound 0.8 µM) was 0.908. It also gave a relative viability (PC-3 [JPC-3]; first compound 2.53 µM) of 0.927, a relative viability (PC-3 [JPC-3]; first compound 8 µM) of 0.806 and a relative viability (NCI-H661; first compound 0.08 µM) of 0.961. The relative viability (NCI-H661; first compound 0.8 µM) was 0.867, the relative viability (NCI-H661; first compound 2.53 µM) was 0.997 and the relative viability (NCI-H661; first compound 8 µM) was 0.78. For the same molecule, the relative viability (NCI-H520; first compound 0.08 µM) was 0.848, the relative viability (NCI-H520; first compound 0.8 µM) was 0.255 and the relative viability (NCI-H520; first compound 2.53 µM) was 0.668. It also gave a relative viability (NCI-H520; first compound 8 µM) of 0.511, a relative viability (PC-14; first compound 0.08 µM) of 0.858 and a relative viability (PC-14; first compound 0.8 µM) of 0.899. It also gave a relative viability (PC-14; first compound 2.53 µM) of 0.84, a relative viability (PC-14; first compound 8 µM) of 0.87 and a relative viability (SK-LU-1; first compound 0.08 µM) of 1.23. It also gave a relative viability (SK-LU-1; first compound 0.8 µM) of 1.95, a relative viability (SK-LU-1; first compound 2.53 µM) of 0.982 and a relative viability (SK-LU-1; first compound 8 µM) of 0.929. For the same molecule, the relative viability (NCI-H1734; first compound 0.08 µM) was 0.882, the relative viability (NCI-H1734; first compound 0.8 µM) was 1.35 and the relative viability (NCI-H1734; first compound 2.53 µM) was 1.14. It also gave a relative viability (NCI-H1734; first compound 8 µM) of 0.944, a relative viability (NCI-H2228; first compound 0.08 µM) of 0.939 and a relative viability (NCI-H2228; first compound 0.8 µM) of 1.03. The relative viability (NCI-H2228; first compound 2.53 µM) was 1.29, the relative viability (NCI-H2228; first compound 8 µM) was 1.26 and the relative viability (H3255; first compound 0.08 µM) was 0.962. It also gave a relative viability (H3255; first compound 0.8 µM) of 0.975, a relative viability (H3255; first compound 2.53 µM) of 0.702 and a relative viability (H3255; first compound 8 µM) of 0.889. It also gave a relative viability (HARA; first compound 0.08 µM) of 1.05, a relative viability (HARA; first compound 0.8 µM) of 1.25 and a relative viability (HARA; first compound 2.53 µM) of 1.13. For the same molecule, the relative viability (HARA; first compound 8 µM) was 1.26, the relative viability (NCI-H3122; first compound 0.08 µM) was 0.978 and the relative viability (NCI-H3122; first compound 0.8 µM) was 1.03. It also gave a relative viability (NCI-H3122; first compound 2.53 µM) of 0.916, a relative viability (NCI-H3122; first compound 8 µM) of 0.992 and a relative viability (NCI-H1975; first compound 0.08 µM) of 0.45. It also gave a relative viability (NCI-H1975; first compound 0.8 µM) of 0.432, a relative viability (NCI-H1975; first compound 2.53 µM) of 0.372 and a relative viability (NCI-H1975; first compound 8 µM) of 0.367. The relative viability (NCI-H838; first compound 0.08 µM) was 1.38, the relative viability (NCI-H838; first compound 0.8 µM) was 1.12 and the relative viability (NCI-H838; first compound 2.53 µM) was 0.72. For the same molecule, the relative viability (NCI-H838; first compound 8 µM) was 0.936, the relative viability (CAL-12T; first compound 0.08 µM) was 0.996 and the relative viability (CAL-12T; first compound 0.8 µM) was 1.27. The relative viability (CAL-12T; first compound 8 µM) was 1.04, the relative viability (LC-2-ad; first compound 0.08 µM) was 0.959 and the relative viability (LC-2-ad; first compound 0.8 µM) was 1.1. It also gave a relative viability (LC-2-ad; first compound 2.53 µM) of 1.05, a relative viability (LC-2-ad; first compound 8 µM) of 1.02 and a relative viability (HCC-366; first compound 0.08 µM) of 1.05. It also gave a relative viability (HCC-366; first compound 0.8 µM) of 1.05, a relative viability (HCC-366; first compound 2.53 µM) of 1.43 and a relative viability (HCC-366; first compound 8 µM) of 1.1. It also gave a relative viability (NCI-H647; first compound 0.08 µM) of 1.08, a relative viability (NCI-H647; first compound 0.8 µM) of 1.28 and a relative viability (NCI-H647; first compound 2.53 µM) of 1.43. For the same molecule, the relative viability (NCI-H647; first compound 8 µM) was 0.929, the relative viability (LU99A; first compound 0.08 µM) was 1.37 and the relative viability (LU99A; first compound 0.8 µM) was 1.23. For the same molecule, the relative viability (LU99A; first compound 2.53 µM) was 1.1, the relative viability (LU99A; first compound 8 µM) was 1.07 and the relative viability (COR-L 105; first compound 0.08 µM) was 0.81. It also gave a relative viability (COR-L 105; first compound 0.8 µM) of 0.901, a relative viability (COR-L 105; first compound 2.53 µM) of 0.765 and a relative viability (COR-L 105; first compound 8 µM) of 0.961.
